The target of assay [1] is T1, Recombinant STAT3 protein (STAT3(G127-I722)) (Homo sapiens, UniProt P40763).
T1 construct: Recombinant STAT3 protein (STAT3(G127-I722))
Put plainly: STAT3 Fluorescence Polarization (FP) Assay. In kind it is binding. The following applies: STAT3(G127-I722) 25 nM, probe 5-FAM-GpYLPQTV-NH2 2 nM, 45-minute incubation. The method, boiled down:
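STAT3(G127-I722), 25 nM, was mixed with 2 nM 5-FAM-GpYLPQTV-NH2 probe in HEPES pH 7.4 buffer with 1% DMSO and serially diluted compound. FP (mP) was read after 45 min at room temperature. IC50 came from nonlinear regression.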

Assay [2] addresses T2, Recombinant STAT6 protein (STAT6(W123-T658)) (Homo sapiens, UniProt P42226).
T2 construct: Recombinant STAT6 protein (STAT6(W123-T658))
T2 sequence (P42226 123-658): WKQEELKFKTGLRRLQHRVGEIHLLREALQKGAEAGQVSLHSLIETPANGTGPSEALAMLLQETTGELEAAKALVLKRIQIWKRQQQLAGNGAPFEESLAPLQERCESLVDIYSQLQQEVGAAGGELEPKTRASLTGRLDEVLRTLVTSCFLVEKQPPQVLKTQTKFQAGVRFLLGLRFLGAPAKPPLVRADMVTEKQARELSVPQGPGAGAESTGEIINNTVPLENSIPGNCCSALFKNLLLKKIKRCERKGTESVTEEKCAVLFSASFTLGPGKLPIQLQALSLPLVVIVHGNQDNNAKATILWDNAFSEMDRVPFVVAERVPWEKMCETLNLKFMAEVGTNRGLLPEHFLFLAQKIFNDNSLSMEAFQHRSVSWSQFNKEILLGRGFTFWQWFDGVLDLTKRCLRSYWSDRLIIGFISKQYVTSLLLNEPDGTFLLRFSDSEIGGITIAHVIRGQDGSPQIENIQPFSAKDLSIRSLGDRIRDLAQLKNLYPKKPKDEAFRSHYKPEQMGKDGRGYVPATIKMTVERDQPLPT
Description: STAT6 Fluorescence Polarization (FP) Assay. The assay is classed as binding. The following applies: STAT6(W123-T658) 250 nM, probe 5-FAM-ApYKPFQDLI-NH2 2 nM, 45-minute incubation. The method, boiled down:
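Displacement of a fluorescent phosphotyrosine peptide (5-FAM-ApYKPFQDLI-NH2, 2 nM) from STAT6(W123-T658) (250 nM), 1% DMSO, pH 7.4 HEPES buffer. After 45 min at room temperature, polarization (mP) was plotted versus log compound concentration and fitted by nonlinear regression to give IC50.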

These results are taken from patent publication US20250179103A1, “6-OXODECAHYDROPYRROLO[1,2-A][1,5]DIAZOCINE AND 6-OXODECAHYDRO-4H-PYRROLO[2,1-D][1,5]THIAZOCINE DERIVATIVES AS STAT3 AND STAT6 MODULATORS FOR THE TREATMENT OF CANCER AND INFLAMMATORY CONDITIONS” (Recludix Pharma, Inc., priority 2022, published 2025).

A value given as a limit tells only on which side of the number the result lay.

T1 sequence (P40763 127-722): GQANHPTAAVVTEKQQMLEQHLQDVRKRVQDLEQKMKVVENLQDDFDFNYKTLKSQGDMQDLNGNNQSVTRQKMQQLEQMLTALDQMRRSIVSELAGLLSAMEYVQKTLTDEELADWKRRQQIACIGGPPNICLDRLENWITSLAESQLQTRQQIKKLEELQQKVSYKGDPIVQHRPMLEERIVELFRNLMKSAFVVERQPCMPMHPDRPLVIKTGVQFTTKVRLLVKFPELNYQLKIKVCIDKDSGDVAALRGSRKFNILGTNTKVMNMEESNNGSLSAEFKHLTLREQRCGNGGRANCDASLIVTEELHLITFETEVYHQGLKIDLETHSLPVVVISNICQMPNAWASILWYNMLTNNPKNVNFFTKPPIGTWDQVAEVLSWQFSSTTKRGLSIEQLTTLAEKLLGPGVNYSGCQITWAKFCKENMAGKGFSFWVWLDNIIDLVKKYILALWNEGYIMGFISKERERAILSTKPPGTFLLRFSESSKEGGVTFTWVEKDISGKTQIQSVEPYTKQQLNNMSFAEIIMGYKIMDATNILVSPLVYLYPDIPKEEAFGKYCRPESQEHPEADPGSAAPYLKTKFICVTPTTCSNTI

`O=C(N[C@H]1CN(S(=O)(=O)CCc2ccccc2)CC[C@H]2CC[C@@H](C(=O)Nc3ccc(-c4ccccc4)cc3)N2C1=O)c1cc2cc(C(F)(F)P(=O)(O)O)ccc2s1` [Compound 268, ((2-(((5S,8S,10aR)-8-([1,1′-biphenyl]-4-ylcarbamoyl)-6-oxo-3-(phenethylsulfonyl)decahydropyrrolo[1,2-a][1,5]diazocin-5-yl)carbamoyl)benzo[b]thiophen-5-yl)difluoromethyl)phosphonic acid]: the IC50 in assay [1] was in the range of 1 to 10 µM; in assay [2], 0.3 to 3 µM.
`CC(C)(CC(=O)N1CC[C@H]2CC[C@@H](C(=O)N3CC(c4cccnc4)C3)N2C(=O)[C@@H](NC(=O)c2cc3cc(C(F)(F)P(=O)(O)O)ccc3s2)C1)C1CCCCC1` [Compound 269, ((2-(((5S,8S,10aR)-3-(3-cyclohexyl-3-methylbutanoyl)-6-oxo-8-(3-(pyridin-3-yl)azetidine-1-carbonyl)decahydropyrrolo[1,2-a][1,5]diazocin-5-yl)carbamoyl)benzo[b]thiophen-5-yl)difluoromethyl)phosphonic acid]: the IC50 in assay [1] is ≤ 0.1 µM; in assay [2] it was 0.3 to 3 µM.
For `Cc1ccc2[nH]nc(C(=O)N3CC[C@H]4CC[C@@H](C(=O)N(C)C5CC5)N4C(=O)[C@@H](NC(=O)c4ccc5ccc(C(F)(F)P(=O)(O)O)cc5c4)C3)c2c1` [Compound 270, ((7-(((5S,8S,10aR)-8-(cyclopropyl(methyl)carbamoyl)-3-(5-methyl-1H-indazole-3-carbonyl)-6-oxodecahydropyrrolo[1,2-a][1,5]diazocin-5-yl)carbamoyl)naphthalen-2-yl)difluoromethyl)phosphonic acid], in that order: 1 to 10 µM and ≤ 0.3 µM.
For `Cc1ccc2[nH]nc(C(=O)N3CC[C@H]4CC[C@@H](C(=O)N(C)C)N4C(=O)[C@@H](NC(=O)c4ccc5ccc(C(F)(F)P(=O)(O)O)cc5c4)C3)c2c1` [Compound 271, ((7-(((5S,8S,10aR)-8-(dimethylcarbamoyl)-3-(5-methyl-1H-indazole-3-carbonyl)-6-oxodecahydropyrrolo[1,2-a][1,5]diazocin-5-yl)carbamoyl)naphthalen-2-yl)difluoromethyl)phosphonic acid], in that order: 1 to 10 µM and ≤ 0.3 µM.
For `CNC(=O)[C@@H]1CC[C@@H]2CCN(Cc3ccn4ccnc4c3)C[C@H](NC(=O)c3cc4cc(C(F)(F)P(=O)(O)O)ccc4s3)C(=O)N21` [Compound 272, (difluoro(2-(((5S,8S,10aR)-3-(imidazo[1,2-a]pyridin-7-ylmethyl)-8-(methylcarbamoyl)-6-oxodecahydropyrrolo[1,2-a][1,5]diazocin-5-yl)carbamoyl)benzo[b]thiophen-5-yl)methyl)phosphonic acid], in that order: ≤ 0.1 µM and 3 to 30 µM.
As to `O=C(N[C@H]1CN(Cc2ccn3ccnc3c2)CC[C@H]2CC[C@@H](C(=O)N3CC(c4cccnc4)C3)N2C1=O)c1cc2cc(C(F)(F)P(=O)(O)O)ccc2s1` [Compound 273, (difluoro(2-(((5S,8S,10aR)-3-(imidazo[1,2-a]pyridin-7-ylmethyl)-6-oxo-8-(3-(pyridin-3-yl)azetidine-1-carbonyl)decahydropyrrolo[1,2-a][1,5]diazocin-5-yl)carbamoyl)benzo[b]thiophen-5-yl)methyl)phosphonic acid], the results for the concentration for half-maximal inhibition (IC50) in assay [1] and in assay [2] were ≤ 0.1 µM and 3 to 30 µM, respectively.
For `CN1CCN(c2ccccc2CN2CC[C@H]3CC[C@@H](C(=O)N4CC(c5cccnc5)C4)N3C(=O)[C@@H](NC(=O)c3cc4cc(C(F)(F)P(=O)(O)O)ccc4s3)C2)CC1` [Compound 274, (difluoro(2-(((5S,8S,10aR)-3-(2-(4-methylpiperazin-1-yl)benzyl)-6-oxo-8-(3-(pyridin-3-yl)azetidine-1-carbonyl)decahydropyrrolo[1,2-a][1,5]diazocin-5-yl)carbamoyl)benzo[b]thiophen-5-yl)methyl)phosphonic acid], in that order: ≤ 0.1 µM and 3 to 30 µM.
Regarding `COc1cc(CN2CC[C@H]3CC[C@@H](C(=O)N4CC(c5cccnc5)C4)N3C(=O)[C@@H](NC(=O)c3cc4cc(C(F)(F)P(=O)(O)O)ccc4s3)C2)ccc1-n1cnc(C)c1` [Compound 275, (difluoro(2-(((5S,8S,10aR)-3-(3-methoxy-4-(4-methyl-1H-imidazol-1-yl)benzyl)-6-oxo-8-(3-(pyridin-3-yl)azetidine-1-carbonyl)decahydropyrrolo[1,2-a][1,5]diazocin-5-yl)carbamoyl)benzo[b]thiophen-5-yl)methyl)phosphonic acid], the IC50 in assay [1] is ≤ 0.1 µM; in assay [2], 3 to 30 µM.
With `N#Cc1ccccc1-c1ccc(NC(=O)[C@@H]2CC[C@@H]3CCN(C(=O)Cc4ccccc4)C[C@H](NC(=O)c4cc5cc(C(F)(F)P(=O)(O)O)ccc5[nH]4)C(=O)N32)c(F)c1` [Compound 276, ((2-(((5S,8S,10aR)-8-((2′-cyano-3-fluoro-[1,1′-biphenyl]-4-yl)carbamoyl)-6-oxo-3-(2-phenylacetyl)decahydropyrrolo[1,2-a][1,5]diazocin-5-yl)carbamoyl)-1H-indol-5-yl)difluoromethyl)phosphonic acid], the figures for the IC50 in assay [1] and in assay [2] were 1 to 10 µM and 0.3 to 3 µM, respectively.
The like results for `O=C(N[C@H]1CN(CC(F)(F)F)CC[C@H]2CC[C@@H](C(=O)N3CC(C(=O)N4CCOCC4)C3)N2C1=O)c1cc2cc(C(F)(F)P(=O)(O)O)ccc2s1` [Compound 277, (difluoro(2-(((5S,8S,10aR)-8-(3-(morpholine-4-carbonyl)azetidine-1-carbonyl)-6-oxo-3-(2,2,2-trifluoroethyl)decahydropyrrolo[1,2-a][1,5]diazocin-5-yl)carbamoyl)benzo[b]thiophen-5-yl)methyl)phosphonic acid] were, in that order, ≤ 0.1 µM and 3 to 30 µM.
As to `CCN1CC[C@H]2CC[C@@H](C(=O)N3CC(C(=O)N4CCOCC4)C3)N2C(=O)[C@@H](NC(=O)c2cc3cc(C(F)(F)P(=O)(O)O)ccc3s2)C1` [Compound 278, ((2-(((5S,8S,10aR)-3-ethyl-8-(3-(morpholine-4-carbonyl)azetidine-1-carbonyl)-6-oxodecahydropyrrolo[1,2-a][1,5]diazocin-5-yl)carbamoyl)benzo[b]thiophen-5-yl)difluoromethyl)phosphonic acid], the IC50 in assay [1] fell in the range of 0.1 to 1 µM; in assay [2], 3 to 30 µM.
For `CC(=O)N1CC[C@H]2CC[C@@H](C(=O)N3CC(c4ccn(C)c(=O)c4)CC34CC4)N2C(=O)[C@@H](NC(=O)c2ccc3ccc(C(F)P(=O)(O)O)cc3c2)C1` (stereo partly drawn) [Compound 354, ((7-(((5S,8S,10a R)-3-acetyl-8-(6-(1-methyl-2-oxo-1,2-dihydropyridin-4-yl)-4-azaspiro[2.4]heptane-4-carbonyl)-6-oxodeca-hydropyrrolo [1,2-a][1,5]diazocin-5-yl)carbamoyl)naphthalen-2-yl)fluoromethyl) phosphonic acid], in that order: > 10 µM and ≤ 0.3 µM.
The like results for `CC(=O)N1CC[C@H]2CC[C@@H](C(=O)N3CCC(c4cccnc4)C3)N2C(=O)[C@@H](NC(=O)c2ccc3ccc(C(F)P(=O)(O)O)cc3c2)C1` (stereo partly drawn) [Compound 355, ((7-(((5S,8S,10a R)-3-acetyl-6-oxo-8-(3-(pyridin-3-yl)pyrrolidine-1-carbonyl)decahydro-pyrrolo [1,2-a][1,5]diazocin-5-yl)carbamoyl)naphthalen-2-yl)fluoromethyl) phosphonic acid] were, in that order, 1 to 10 µM and 0.3 to 3 µM.
For `CC(=O)N1CC[C@H]2CC[C@@H](C(=O)N3CC(c4ccn(C)c(=O)c4)CC34CC4)N2C(=O)[C@@H](NC(=O)c2ccc3ccc(CP(=O)(O)O)cc3c2)C1` (stereo partly drawn) [Compound 356, ((7-(((5S,8S,10a R)-3-acetyl-8-(6-(1-methyl-2-oxo-1,2-dihydropyridin-4-yl)-4-azaspiro[2.4]heptane-4-carbonyl)-6-oxodeca-hydropyrrolo [1,2-a][1,5]diazocin-5-yl)carbamoyl)naphthalen-2-yl)methyl) phosphonic acid], in that order: > 10 µM and 0.3 to 3 µM.
As to `O=C(N[C@H]1CN(C(=O)c2ncn3ccccc23)CC[C@H]2CC[C@@H](C(=O)N3CCOCC3)N2C1=O)c1ccc2ccc(C(F)P(=O)(O)O)cc2c1` (stereo partly drawn) [Compound 357, (fluoro(7-(((5S,8S,10aR)-3-(imidazo[1,5-a]pyridine-1-carbonyl)-8-(morpholine-4-carbonyl)-6-oxodecahydro-pyrrolo[1,2-a][1,5]diazocin-5-yl)carbamoyl)naphthalen-2-yl)methyl)phosphonic acid], the values for the IC50 in assay [1] and in assay [2] were > 10 µM and 0.3 to 3 µM, respectively.
